ChEMBL document CHEMBL1201862, “PubChem BioAssay data set” (2004)
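Test compounds were applied to cells in 96-well plates for 48 hours at 5 doses. GI50 = concentration required for 50% inhibition of growth.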 Active and inactive are the calls of the source. No stated cut-off is given here; in the data, active = GI50 up to about 1.1 µM and inactive = higher.

Legend:
Assay in all cases: inhibition of tumour cell growth, NCI panel, 48 h
786-0 = tested on: 786-0
A498 = tested on: A498
A549 = tested on: A549
ACHN = tested on: ACHN
BT-549 = tested on: BT-549
CAKI-1 = tested on: CAKI-1
CCRF-CEM = tested on: CCRF-CEM
COLO 205 = tested on: COLO 205
DU-145 = tested on: DU-145
EKVX = tested on: EKVX
HCC 2998 = tested on: HCC 2998
HCT-116 = tested on: HCT-116
HCT-15 = tested on: HCT-15
HL-60 = tested on: HL-60
HOP-62 = tested on: HOP-62
HOP-92 = tested on: HOP-92
HT-29 = tested on: HT-29
Hs-578T = tested on: Hs-578T
IGROV-1 = tested on: IGROV-1
K562 = tested on: K562
KM12 = tested on: KM12
LOX IMVI = tested on: LOX IMVI
M14 = tested on: M14
MCF7 = tested on: MCF7
MDA-MB-231 = tested on: MDA-MB-231
MDA-MB-435 = tested on: MDA-MB-435
MDA-N = tested on: MDA-N
MOLT-4 = tested on: MOLT-4
Malme-3M = tested on: Malme-3M
NCI-H226 = tested on: NCI-H226
NCI-H23 = tested on: NCI-H23
NCI-H460 = tested on: NCI-H460
NCI-H522 = tested on: NCI-H522
NCI/ADR-RES = tested on: NCI/ADR-RES
OVCAR-3 = tested on: OVCAR-3
OVCAR-4 = tested on: OVCAR-4
OVCAR-5 = tested on: OVCAR-5
OVCAR-8 = tested on: OVCAR-8
PC-3 = tested on: PC-3
RPMI-8226 = tested on: RPMI-8226
SF-268 = tested on: SF-268
SF-295 = tested on: SF-295
SF-539 = tested on: SF-539
SK-MEL-28 = tested on: SK-MEL-28
SK-MEL-2 = tested on: SK-MEL-2
SK-MEL-5 = tested on: SK-MEL-5
SK-OV-3 = tested on: SK-OV-3
SN12C = tested on: SN12C
SNB-19 = tested on: SNB-19
SNB-75 = tested on: SNB-75
SW-620 = tested on: SW-620
T47D = tested on: T47D
TK-10 = tested on: TK-10
U-251 = tested on: U-251
UACC-257 = tested on: UACC-257
UACC-62 = tested on: UACC-62
UO-31 = tested on: UO-31
RXF 393 = tested on: RXF 393
SR = tested on: SR

Fc1ccc(C(OCCN2CC3CCC(C2)N3CCCc2ccccc2)c2ccc(F)cc2)cc1
GI50 (786-0): 3.62 µM (inactive) | GI50 (A498): 4.27 µM (inactive) | GI50 (A549): 8.15 µM (inactive) | GI50 (ACHN): 10.6 µM (inactive) | GI50 (BT-549): 12.4 µM (inactive) | GI50 (CAKI-1): 6.22 µM (inactive) | GI50 (CCRF-CEM): 2.71 µM (inactive) | GI50 (COLO 205): 1.41 µM (inactive) | GI50 (DU-145): 8.13 µM (inactive) | GI50 (EKVX): 4.06 µM (inactive) | GI50 (HCC 2998): 2.87 µM (inactive) | GI50 (HCT-116): 2.93 µM (inactive) | GI50 (HCT-15): 3.42 µM | GI50 (HL-60): 3.08 µM (inactive) | GI50 (HOP-62): 6.03 µM (inactive) | GI50 (HOP-92): 8.05 µM (inactive) | GI50 (HT-29): 3.29 µM (inactive) | GI50 (Hs-578T): 3.25 µM (inactive) | GI50 (IGROV-1): 8.71 µM (inactive) | GI50 (K562): 2 µM (inactive) | GI50 (KM12): 3.18 µM (inactive) | GI50 (LOX IMVI): 3.89 µM (inactive) | GI50 (M14): 2.48 µM (inactive) | GI50 (MCF7): 3.39 µM (inactive) | GI50 (MDA-MB-231): 2.74 µM (inactive) | GI50 (MDA-MB-435): 2.13 µM (inactive) | GI50 (MDA-N): 3.43 µM (inactive) | GI50 (MOLT-4): 2.79 µM (inactive) | GI50 (Malme-3M): 3.32 µM (inactive) | GI50 (NCI-H226): 3.94 µM (inactive) | GI50 (NCI-H23): 4.25 µM (inactive) | GI50 (NCI-H460): 3.01 µM (inactive) | GI50 (NCI-H522): 2.17 µM (inactive) | GI50 (NCI/ADR-RES): 3.89 µM (inactive) | GI50 (OVCAR-3): 5.92 µM (inactive) | GI50 (OVCAR-4): 3.94 µM (inactive) | GI50 (OVCAR-5): 10.6 µM (inactive) | GI50 (OVCAR-8): 2.3 µM (inactive) | GI50 (PC-3): 2.72 µM (inactive) | GI50 (RPMI-8226): 2.15 µM (inactive) | GI50 (SF-268): 4.5 µM (inactive) | GI50 (SF-295): 3.15 µM (inactive) | GI50 (SF-539): 1.99 µM (inactive) | GI50 (SK-MEL-28): 8.99 µM (inactive) | GI50 (SK-MEL-2): 2.55 µM (inactive) | GI50 (SK-MEL-5): 1.82 µM (inactive) | GI50 (SK-OV-3): 10.2 µM (inactive) | GI50 (SN12C): 3.81 µM (inactive) | GI50 (SNB-19): 10.1 µM (inactive) | GI50 (SNB-75): 3.37 µM (inactive) | GI50 (SW-620): 3.54 µM (inactive) | GI50 (T47D): 1.95 µM (inactive) | GI50 (TK-10): 11.7 µM (inactive) | GI50 (U-251): 4.54 µM (inactive) | GI50 (UACC-257): 3.33 µM (inactive) | GI50 (UACC-62): 9.51 µM (inactive) | GI50 (UO-31): 7.33 µM (inactive)

CCOC(=O)c1c(N)nn2c1cc1cccccc12
GI50 (786-0): 34.4 µM (inactive) | GI50 (A498): 29.4 µM (inactive) | GI50 (A549): 36.8 µM (inactive) | GI50 (ACHN): 27.9 µM (inactive) | GI50 (BT-549): 25.3 µM (inactive) | GI50 (CAKI-1): 27.9 µM (inactive) | GI50 (CCRF-CEM): 43.5 µM (inactive) | GI50 (COLO 205): 31.9 µM (inactive) | GI50 (DU-145): 32.1 µM (inactive) | GI50 (EKVX): 16.3 µM (inactive) | GI50 (HCC 2998): 30 µM (inactive) | GI50 (HCT-116): 33.5 µM (inactive) | GI50 (HCT-15): 32.3 µM | GI50 (HL-60): 32.5 µM (inactive) | GI50 (HOP-62): 29.8 µM (inactive) | GI50 (HOP-92): 33.5 µM (inactive) | GI50 (HT-29): 36.2 µM (inactive) | GI50 (Hs-578T): 29.9 µM (inactive) | GI50 (IGROV-1): 27.9 µM (inactive) | GI50 (KM12): 20.8 µM (inactive) | GI50 (LOX IMVI): 25.1 µM (inactive) | GI50 (M14): 42.1 µM (inactive) | GI50 (MCF7): 16 µM (inactive) | GI50 (MDA-MB-231): 43 µM (inactive) | GI50 (MDA-MB-435): 31.8 µM (inactive) | GI50 (MDA-N): 41.5 µM (inactive) | GI50 (MOLT-4): 25.7 µM (inactive) | GI50 (Malme-3M): 27.8 µM (inactive) | GI50 (NCI-H23): 29.3 µM (inactive) | GI50 (NCI-H460): 20.1 µM (inactive) | GI50 (NCI-H522): 20.1 µM (inactive) | GI50 (NCI/ADR-RES): 25.9 µM (inactive) | GI50 (OVCAR-3): 28.2 µM (inactive) | GI50 (OVCAR-4): 33.6 µM (inactive) | GI50 (OVCAR-5): 59.8 µM (inactive) | GI50 (OVCAR-8): 24.8 µM (inactive) | GI50 (PC-3): 23.6 µM (inactive) | GI50 (RPMI-8226): 18.3 µM (inactive) | GI50 (RXF 393): 6.14 µM (inactive) | GI50 (SF-268): 24.5 µM (inactive) | GI50 (SF-295): 25.1 µM (inactive) | GI50 (SF-539): 51.5 µM (inactive) | GI50 (SK-MEL-28): 29.9 µM (inactive) | GI50 (SK-MEL-2): 19.1 µM (inactive) | GI50 (SK-MEL-5): 26.1 µM (inactive) | GI50 (SK-OV-3): 26.8 µM (inactive) | GI50 (SN12C): 32.9 µM (inactive) | GI50 (SNB-19): 40.7 µM (inactive) | GI50 (SW-620): 32.5 µM (inactive) | GI50 (T47D): 22.6 µM (inactive) | GI50 (TK-10): 19.5 µM (inactive) | GI50 (U-251): 24 µM (inactive) | GI50 (UACC-257): 27.4 µM (inactive) | GI50 (UACC-62): 23.6 µM (inactive)

S=C(N1CCN(c2cccc(Cl)c2)CC1)N1CCN(c2cccc(Cl)c2)CC1
GI50 (786-0): 33.3 µM (inactive) | GI50 (A549): 68.1 µM (inactive) | GI50 (ACHN): 50.8 µM (inactive) | GI50 (BT-549): 75.3 µM (inactive) | GI50 (CAKI-1): 25.2 µM (inactive) | GI50 (CCRF-CEM): 5.71 µM (inactive) | GI50 (COLO 205): 22 µM (inactive) | GI50 (DU-145): 30.3 µM (inactive) | GI50 (EKVX): 35 µM (inactive) | GI50 (HCC 2998): 17.5 µM (inactive) | GI50 (HCT-116): 21.2 µM (inactive) | GI50 (HCT-15): 57.3 µM | GI50 (HOP-62): 36.8 µM (inactive) | GI50 (HT-29): 28.8 µM (inactive) | GI50 (Hs-578T): 18.6 µM (inactive) | GI50 (IGROV-1): 42.6 µM (inactive) | GI50 (K562): 33 µM (inactive) | GI50 (KM12): 24.4 µM (inactive) | GI50 (M14): 53.7 µM (inactive) | GI50 (MCF7): 37.1 µM (inactive) | GI50 (MDA-MB-231): 11 µM (inactive) | GI50 (MDA-MB-435): 82 µM (inactive) | GI50 (MDA-N): > 100 µM (inactive) | GI50 (MOLT-4): 16 µM (inactive) | GI50 (Malme-3M): 21.2 µM (inactive) | GI50 (NCI-H226): 22 µM (inactive) | GI50 (NCI-H23): > 100 µM (inactive) | GI50 (NCI-H522): 26.9 µM (inactive) | GI50 (NCI/ADR-RES): > 100 µM (inactive) | GI50 (OVCAR-3): 47 µM (inactive) | GI50 (OVCAR-4): 28.9 µM (inactive) | GI50 (OVCAR-5): 44.1 µM (inactive) | GI50 (OVCAR-8): > 100 µM (inactive) | GI50 (PC-3): 32.7 µM (inactive) | GI50 (RPMI-8226): 34.6 µM (inactive) | GI50 (RXF 393): 36.6 µM (inactive) | GI50 (SF-268): 39.9 µM (inactive) | GI50 (SF-295): 39.3 µM (inactive) | GI50 (SK-MEL-28): 42.9 µM (inactive) | GI50 (SK-MEL-2): > 100 µM (inactive) | GI50 (SK-MEL-5): 34.2 µM (inactive) | GI50 (SK-OV-3): > 100 µM (inactive) | GI50 (SNB-19): 39.7 µM (inactive) | GI50 (SR): 13.4 µM (inactive) | GI50 (SW-620): > 100 µM (inactive) | GI50 (T47D): 16.9 µM (inactive) | GI50 (TK-10): 43.4 µM (inactive) | GI50 (U-251): 87.3 µM (inactive) | GI50 (UACC-257): 77.3 µM (inactive) | GI50 (UACC-62): 83 µM (inactive) | GI50 (UO-31): 24 µM (inactive)
